Like-named read-outs stand apart in the source and are kept apart here.

Consider 19 molecules from patent US20180243298A1, “TRPV3 MODULATORS” (AbbVie Inc., priority 2015, published 2018).

Test [1] has as its system TRPV3. To be noted: TRPV3 activation, relatively weak and nonspecific across TRPs; cited from earlier work.
Test [2] deals with T1, human TRPV3 (Homo sapiens, UniProt Q8NET8).
T1 construct: expressed in transfected cells; host or cells: HEK293
T1 sequence (Q8NET8 1-790): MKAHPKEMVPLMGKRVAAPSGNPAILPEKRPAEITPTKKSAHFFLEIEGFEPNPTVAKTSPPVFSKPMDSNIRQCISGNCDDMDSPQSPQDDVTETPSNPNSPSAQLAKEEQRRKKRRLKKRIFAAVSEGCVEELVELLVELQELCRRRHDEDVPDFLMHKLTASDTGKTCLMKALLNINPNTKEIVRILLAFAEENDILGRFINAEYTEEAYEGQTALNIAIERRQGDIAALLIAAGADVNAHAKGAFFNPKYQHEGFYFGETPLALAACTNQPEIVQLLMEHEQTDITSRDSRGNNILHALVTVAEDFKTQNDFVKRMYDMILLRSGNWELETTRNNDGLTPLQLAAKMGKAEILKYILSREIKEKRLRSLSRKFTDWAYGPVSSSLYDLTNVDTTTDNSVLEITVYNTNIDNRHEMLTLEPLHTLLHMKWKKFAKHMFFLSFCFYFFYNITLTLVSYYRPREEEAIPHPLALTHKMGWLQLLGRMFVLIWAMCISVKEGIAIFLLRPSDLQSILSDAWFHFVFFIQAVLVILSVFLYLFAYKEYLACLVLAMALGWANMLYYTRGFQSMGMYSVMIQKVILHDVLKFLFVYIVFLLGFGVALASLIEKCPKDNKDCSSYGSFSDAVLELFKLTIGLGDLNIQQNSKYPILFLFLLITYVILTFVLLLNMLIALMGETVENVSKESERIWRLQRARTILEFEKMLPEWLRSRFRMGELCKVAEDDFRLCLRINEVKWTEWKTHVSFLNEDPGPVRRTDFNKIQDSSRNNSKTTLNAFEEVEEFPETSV
The experiment in a line: Calcium flux assay (FLIPR TETRA), recombinant HEK293 cells expressing TRPV3, 2-APB response. It is filed as cell-based. To be noted: 2-APB at its EC80. The essentials:
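Response is the peak fluorescence increase over baseline, as a percentage of the compound-free response to 2-APB at EC80. Calcium flux recorded on FLIPR TETRA in stable human or mouse TRPV3 HEK293 cells after 90–120 min Calcium-4 dye loading.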

In test [3] the test system is FITC-challenged mice. Briefly: Contact hypersensitivity (CHS) to FITC, ear swelling in mice. It is filed as in vivo, mice (BALB/c). To be noted: reduction in ear skin thickness vs vehicle, 24 hours after FITC challenge. The method, then:
(ii) In vivo Data The following protocol was used to evaluate the efficacy of a compound against contact hypersensitivity:
Young adult female BALB/c mice (18±2 g body weight at 6-8 weeks old) Charles River Laboratories) were maintained under pathogen-free conditions and housed in an animal room maintained t at temperature of 21±1° C. and a humidity of 43±5%. Induction of contact hypersensitivity (CHS) and ear thickness measurements for all animals were carried out under light anesthesia (3-5% isoflurane/oxygen) for 1-2 minutes.
Contact hypersensitivity consists of the afferent or initiation sensitizing phase, and the efferent or elicitation phase. The latter phase occurs when epidermal cells encounter a particular antigen to which the epidermal cells have previously been exposed, and is characterized in rodents by localized swelling in the skin.
Fluorescein isothiocyanate (FITC) was purchased from Sigma-Aldrich and dissolved in 1:1 in acetone/dibutylphthalate prior to epicutaneous application. Mice were sensitized by painting epicutaneously 40 uL of 0.5% FITC on the abdomen ventral skin shaved one day prior to sensitization. Six days later, mice were challenged by painting epicutaneously 20 uL total volume of 0.5% FITC on the right ear (10 uL on either side). Control mice were treated with vehicle only. Ear swelling was measured 24 hours after challenge. Treatment groups were dosed orally at a dose volume of 10 mL/kg with compounds either BID (1 hour prior to FITC challenge, 8 hours after first dose and 2 hours prior to ear swelling measurement at 24 hours post FITC challenge) or QD (1 hour prior to FITC challenge and 2 hours prior to ear swelling measurement at 24 hours post FITC challenge). Inflammation was determined by the degree of ear swelling of the hapten exposed ear compared with the untreated ear with a Quick Mini thickness-gauge caliber (Mitutoyo, Japan). The change in ear thickness after allergen treatment can be used to calculate the percent suppression of contact hypersensitivity.
The level of compound-mediated suppression of ear skin thickness in FITC-challenged mice is indicated in Table 2 wherein “A” refers to a reduction in ear skin thickness of >50%, “B” refers to a reduction in ear skin thickness of 30-50% and “C” refers to a reduction in ear skin thickness of <30% relative to vehicle-treated animals.

[4] abbreviates: Mus musculus, 30 mg/kg bid po, read-out: FITC % effect.
Setting [5] is: Mus musculus, 30 mg/kg qd po, read-out: FITC % effect.
[6] abbreviates: Mus musculus, 10 mg/kg qd po, read-out: FITC % effect.

For `c1ccc(B(OB(c2ccccc2)c2ccccc2)c2ccccc2)cc1` [DPBA, diphenylboronic anhydride], the half-maximal effective concentration (EC50) in test [1] is around 40000 nM. In the case of `NCCOB(c1ccccc1)c1ccccc1` [Example 2-APB, 2-aminoethoxydiphenylborate], in test [1], the EC50 is around 40000 nM.

Turning to `COc1ncnc(OC)c1C(=O)Nc1nc(C(F)(F)F)c(-c2cncc(F)c2)s1` [Example 27, N-[5-(5-fluoropyridin-3-yl)-4-(trifluoromethyl)-1,3-thiazol-2-yl]-4,6-dimethoxypyrimidine-5-carboxamide], the half-maximal inhibitory concentration (IC50) in test [2] was in the range of 50 to 100 nM. Besides, the inhibition in vivo at 30 mg/kg in test [3] (setting [4]) is below 30%. As to `COc1ncnc(OC)c1C(=O)Nc1nc(C(F)(F)F)c(-c2cccc(C#N)n2)s1` [Example 31, N-[5-(6-cyanopyridin-2-yl)-4-(trifluoromethyl)-1,3-thiazol-2-yl]-4,6-dimethoxypyrimidine-5-carboxamide], the IC50 in test [2] is below 50 nM. The inhibition in vivo at 30 mg/kg in test [3] (setting [5]) was above 50%. The like results for `COc1ncnc(OC)c1C(=O)Nc1nc(C(F)(F)F)c(-c2ccnc(C(C)(C)C#N)c2)s1` [Example 33, N-{5-[2-(2-cyanopropan-2-yl)pyridin-4-yl]-4-(trifluoromethyl)-1,3-thiazol-2-yl}-4,6-dimethoxypyrimidine-5-carboxamide] were, in that order, 50 to 100 nM and above 50%.

With `COc1ncnc(OC)c1C(=O)Nc1nc(C(F)(F)F)c(-c2cccc(C#N)c2)s1` [Example 40, N-[5-(3-cyanophenyl)-4-(trifluoromethyl)-1,3-thiazol-2-yl]-4,6-dimethoxypyrimidine-5-carboxamide], the IC50 in test [2] was below 50 nM. Besides, in test [3] (setting [4]), the inhibition in vivo at 30 mg/kg is below 30%. As to `COc1ncnc(OC)c1C(=O)Nc1nc(C(F)(F)F)c(-c2cccnc2C#N)s1` [Example 42, N-[5-(2-cyanopyridin-3-yl)-4-(trifluoromethyl)-1,3-thiazol-2-yl]-4,6-dimethoxypyrimidine-5-carboxamide], the IC50 in test [2] was below 50 nM. Further, the inhibition in vivo at 30 mg/kg in test [3] (setting [4]) is below 30%. The like results for `COc1ncnc(OC)c1C(=O)Nc1nc(C(F)(F)F)c(CN2CCC(OC)CC2)s1` [Example 48, 4,6-dimethoxy-N-{5-[(4-methoxypiperidin-1-yl)methyl]-4-(trifluoromethyl)-1,3-thiazol-2-yl}pyrimidine-5-carboxamide] were, in that order, 100 to 500 nM and below 30%. For `COc1ncnc(OC)c1C(=O)Nc1nc(C(F)(F)F)c(CNCC(C)C)s1` [Example 52, 4,6-dimethoxy-N-[5-{[(2-methylpropyl)amino]methyl}-4-(trifluoromethyl)-1,3-thiazol-2-yl]pyrimidine-5-carboxamide], the IC50 in test [2] lay in the range of 50 to 100 nM. Besides, the inhibition in vivo at 10 mg/kg in test [3] (setting [6]) was 30 to 50%. Consider `COc1ncnc(OC)c1C(=O)Nc1nc(C(F)(F)F)c(CN2CCC(F)CC2)s1` [Example 53, N-{5-[(4-fluoropiperidin-1-yl)methyl]-4-(trifluoromethyl)-1,3-thiazol-2-yl}-4,6-dimethoxypyrimidine-5-carboxamide], for which the IC50 in test [2] was below 50 nM. In test [3] (Mus musculus, 10 mg/kg bid po, read-out: FITC % effect), the inhibition in vivo at 10 mg/kg is 30 to 50%. `COc1ncnc(OC)c1C(=O)Nc1nc(C(F)(F)F)c(CN2CC[C@@H](F)C2)s1` [Example 58, N-[5-{[(3R)-3-fluoropyrrolidin-1-yl]methyl}-4-(trifluoromethyl)-1,3-thiazol-2-yl]-4,6-dimethoxypyrimidine-5-carboxamide]: the IC50 in test [2] lay within 50 to 100 nM. The inhibition in vivo at 10 mg/kg in test [3] (setting [6]) is 30 to 50%. Consider `COc1ncnc(OC)c1C(=O)Nc1nc(C(F)(F)F)c(-c2cccnc2C)s1` [Example 64, 4,6-dimethoxy-N-[5-(2-methylpyridin-3-yl)-4-(trifluoromethyl)-1,3-thiazol-2-yl]pyrimidine-5-carboxamide], for which the IC50 in test [2] was below 50 nM. Besides, in test [3] (setting [5]), the inhibition in vivo at 30 mg/kg was in the range of 30 to 50%. Consider `COc1ncnc(OC)c1C(=O)Nc1nc(C(F)(F)F)c(-c2cc(C(F)(F)F)nn2C)s1` [Example 65, 4,6-dimethoxy-N-{5-[1-methyl-3-(trifluoromethyl)-1H-pyrazol-5-yl]-4-(trifluoromethyl)-1,3-thiazol-2-yl}pyrimidine-5-carboxamide], for which the IC50 in test [2] was below 50 nM. Also, the inhibition in vivo at 30 mg/kg in test [3] (setting [4]) is below 30%. As for `COc1ncnc(OC)c1C(=O)Nc1nc(C(F)(F)F)c(-c2ccnc(C#N)c2)s1` [Example 66, N-[5-(2-cyanopyridin-4-yl)-4-(trifluoromethyl)-1,3-thiazol-2-yl]-4,6-dimethoxypyrimidine-5-carboxamide], in test [2], the IC50 is 50 to 100 nM. In addition, in test [3] (Mus musculus, 100 mg/kg bid po, read-out: FITC % effect), the inhibition in vivo at 100 mg/kg is above 50%.

For the molecule `COc1ncnc(OC)c1C(=O)Nc1nc(C(F)(F)F)c(-c2cnoc2)s1` [Example 169, 4,6-dimethoxy-N-[5-(1,2-oxazol-4-yl)-4-(trifluoromethyl)-1,3-thiazol-2-yl]pyrimidine-5-carboxamide], the IC50 in test [2] was below 50 nM. For the same molecule, in test [3] (setting [4]), the inhibition in vivo at 30 mg/kg was below 30%. Regarding `COc1ncnc(OC)c1C(=O)Nc1nc(C(F)(F)F)c(-c2cncc(C(F)(F)F)c2)s1` [Example 196, 4,6-dimethoxy-N-{4-(trifluoromethyl)-5-[5-(trifluoromethyl)pyridin-3-yl]-1,3-thiazol-2-yl}pyrimidine-5-carboxamide], the IC50 in test [2] is below 50 nM. In addition, the inhibition in vivo at 30 mg/kg in test [3] (setting [4]) was below 30%.

`COc1ncnc(OC)c1C(=O)Nc1nc(C(F)(F)F)c(-c2ccc3nonc3c2)s1` [Example 199, N-[5-(2,1,3-benzoxadiazol-5-yl)-4-(trifluoromethyl)-1,3-thiazol-2-yl]-4,6-dimethoxypyrimidine-5-carboxamide]: the IC50 in test [2] was below 50 nM. Moreover, in test [3] (setting [4]), the inhibition in vivo at 30 mg/kg fell in the range of 30 to 50%. Regarding `COc1ncnc(OC)c1C(=O)Nc1nc(C(F)(F)F)c(-c2cnc(C(F)(F)F)nc2)s1` [Example 202, 4,6-dimethoxy-N-{4-(trifluoromethyl)-5-[2-(trifluoromethyl)pyrimidin-5-yl]-1,3-thiazol-2-yl}pyrimidine-5-carboxamide], the IC50 in test [2] is below 50 nM. In test [3] (setting [4]), the inhibition in vivo at 30 mg/kg was below 30%. In the case of “N-[5-(4-cyanophenyl)-4-(trifluoromethyl)-1,3-thiazol-2-yl]-4,6-dimethoxypyrimidine-5-carboxamide [Example 41]”, the IC50 in test [2] is below 50 nM. The FITC % effect entry in test [3] (30 mg/kg bid po) is “C (a reduction in ear skin thickness of <30% relative to vehicle-treated animals)”.

What is called EC50 is the concentration that produces a half-maximal response. The IC50 is the midpoint of a concentration-inhibition curve.
